Experimental data reported in PubChem BioAssay (NCI).
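Method: 48-hour compound exposure of cells in 96-well plates, five concentrations, linear interpolation of endpoints. TGI denotes the concentration required for complete inhibition of growth.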

How the values were obtained:
Assay in all cases: growth of human tumour cells (NCI), 48 h
KM12 colon = system: KM12 colon
MOLT-4 leukemia = system: MOLT-4 leukemia
OVCAR-8 ovarian = system: OVCAR-8 ovarian
CCRF-CEM leukemia = system: CCRF-CEM leukemia
LXFL 529 NSCLC = system: LXFL 529 NSCLC
K-562 leukemia = system: K-562 leukemia
SNB-19 CNS = system: SNB-19 CNS
NCI-H226 lung = system: NCI-H226 lung
RXF 393 renal = system: RXF 393 renal
SNB-75 CNS = system: SNB-75 CNS
DMS 273 small cell lung = system: DMS 273 small cell lung
HCC-2998 colon = system: HCC-2998 colon
COLO 205 colon = system: COLO 205 colon
SK-MEL-28 melanoma = system: SK-MEL-28 melanoma
NCI-H522 lung = system: NCI-H522 lung
SW-620 colon = system: SW-620 colon
SN12C renal = system: SN12C renal
SK-MEL-5 melanoma = system: SK-MEL-5 melanoma
M19-MEL melanoma = system: M19-MEL melanoma
M14 melanoma = system: M14 melanoma
SF-539 CNS = system: SF-539 CNS
LOX IMVI melanoma = system: LOX IMVI melanoma
HT29 colon = system: HT29 colon
SK-MEL-2 melanoma = system: SK-MEL-2 melanoma
NCI-H460 lung = system: NCI-H460 lung
SF-295 CNS = system: SF-295 CNS
786-0 renal = system: 786-0 renal
IGROV1 ovarian = system: IGROV1 ovarian
SNB-78 CNS = system: SNB-78 CNS
NCI-H23 lung = system: NCI-H23 lung
MALME-3M melanoma = system: MALME-3M melanoma
SR leukemia = system: SR leukemia
HL-60(TB) leukemia = system: HL-60(TB) leukemia
SF-268 CNS = system: SF-268 CNS
OVCAR-4 ovarian = system: OVCAR-4 ovarian
HCT-116 colon = system: HCT-116 colon
SK-OV-3 ovarian = system: SK-OV-3 ovarian
HOP-18 NSCLC = system: HOP-18 NSCLC
KM20L2 colon = system: KM20L2 colon
U251 CNS = system: U251 CNS
HOP-62 NSCLC = system: HOP-62 NSCLC
OVCAR-5 ovarian = system: OVCAR-5 ovarian
RPMI-8226 leukemia = system: RPMI-8226 leukemia
A498 renal = system: A498 renal
DMS 114 small cell lung = system: DMS 114 small cell lung
A549 NSCLC = system: A549 NSCLC
XF 498 CNS = system: XF 498 CNS
HCT-15 colon = system: HCT-15 colon
TK-10 renal = system: TK-10 renal
UO-31 renal = system: UO-31 renal
EKVX NSCLC = system: EKVX NSCLC
DLD-1 colon = system: DLD-1 colon
HOP-92 NSCLC = system: HOP-92 NSCLC
OVCAR-3 ovarian = system: OVCAR-3 ovarian
UACC-62 melanoma = system: UACC-62 melanoma
ACHN renal = system: ACHN renal
UACC-257 melanoma = system: UACC-257 melanoma
CAKI-1 renal = system: CAKI-1 renal
MDA-N = system: MDA-N
PC-3 prostate = system: PC-3 prostate
BT-549 breast = system: BT-549 breast
MDA-MB-435 = system: MDA-MB-435
MCF7 breast = system: MCF7 breast
T-47D breast = system: T-47D breast
DU-145 prostate = system: DU-145 prostate
NCI/ADR-RES ovarian = system: NCI/ADR-RES ovarian
HS 578T breast = system: HS 578T breast
MDA-MB-231 breast = system: MDA-MB-231 breast

Work on `c1ccc2c(c1)nc(NC1CCCC1)c1[nH]c(C3CCCC3)nc12` yielded a TGI (KM12 colon) of 21.3 µM, a TGI (MOLT-4 leukemia) of over 41.7 µM and a TGI (OVCAR-8 ovarian) of 24.3 µM. The TGI (CCRF-CEM leukemia) was 64.3 µM, the TGI (LXFL 529 NSCLC) was 22.8 µM and the TGI (K-562 leukemia) was 41.4 µM. The TGI (SNB-19 CNS) was over 100 µM, the TGI (NCI-H226 lung) was 45.1 µM and the TGI (RXF 393 renal) was 30.9 µM. For the same compound, the TGI (SNB-75 CNS) was over 100 µM, the TGI (DMS 273 small cell lung) was 22.3 µM and the TGI (HCC-2998 colon) was 17.6 µM. For the same compound, the TGI (COLO 205 colon) was 36.5 µM, the TGI (SK-MEL-28 melanoma) was 28.3 µM and the TGI (NCI-H522 lung) was 36.9 µM. It also gave a TGI (SW-620 colon) of 21.2 µM, a TGI (SN12C renal) of over 83.9 µM and a TGI (SK-MEL-5 melanoma) of 17.1 µM. For the same compound, the TGI (M19-MEL melanoma) was 27.7 µM, the TGI (M14 melanoma) was 10 µM and the TGI (SF-539 CNS) was 21.1 µM. For the same compound, the TGI (LOX IMVI melanoma) was 30.6 µM, the TGI (HT29 colon) was 20.1 µM and the TGI (SK-MEL-2 melanoma) was 19.1 µM. It also gave a TGI (NCI-H460 lung) of 27.1 µM, a TGI (SF-295 CNS) of 32.8 µM and a TGI (786-0 renal) of 20.7 µM. The TGI (IGROV1 ovarian) was 46 µM, the TGI (SNB-78 CNS) was over 92.7 µM and the TGI (NCI-H23 lung) was 32.7 µM. It also gave a TGI (MALME-3M melanoma) of 30.7 µM, a TGI (SR leukemia) of 63.5 µM and a TGI (HL-60(TB) leukemia) of 6.82 µM. It also gave a TGI (SF-268 CNS) of 47 µM, a TGI (OVCAR-4 ovarian) of 30.1 µM and a TGI (HCT-116 colon) of 17.6 µM. It also gave a TGI (SK-OV-3 ovarian) of over 62.5 µM, a TGI (HOP-18 NSCLC) of 45.5 µM and a TGI (KM20L2 colon) of 20.8 µM. It also gave a TGI (U251 CNS) of 13.3 µM, a TGI (HOP-62 NSCLC) of 35.9 µM and a TGI (OVCAR-5 ovarian) of 61.1 µM. It also gave a TGI (RPMI-8226 leukemia) of over 67.9 µM, a TGI (A498 renal) of 43.1 µM and a TGI (DMS 114 small cell lung) of 35.4 µM. It also gave a TGI (A549 NSCLC) of 58.8 µM, a TGI (XF 498 CNS) of 34.4 µM and a TGI (HCT-15 colon) of 28.3 µM. It also gave a TGI (TK-10 renal) of over 93.3 µM, a TGI (UO-31 renal) of 63 µM and a TGI (EKVX NSCLC) of over 100 µM. The TGI (DLD-1 colon) was over 100 µM, the TGI (HOP-92 NSCLC) was 37.2 µM and the TGI (OVCAR-3 ovarian) was 27.9 µM. For the same compound, the TGI (UACC-62 melanoma) was 29.8 µM, the TGI (ACHN renal) was over 75.6 µM and the TGI (UACC-257 melanoma) was 11.1 µM.
For `Cc1[nH]c2ccccc2c1C=Nc1ccc(N=Cc2c(C)[nH]c3ccccc23)cc1`, the TGI (CAKI-1 renal) was over 100 µM, the TGI (KM12 colon) was 32.3 µM and the TGI (MOLT-4 leukemia) was 43.1 µM. The TGI (MDA-N) was over 100 µM, the TGI (OVCAR-8 ovarian) was over 100 µM and the TGI (CCRF-CEM leukemia) was 47.6 µM. The TGI (K-562 leukemia) was 47 µM, the TGI (SNB-19 CNS) was over 100 µM and the TGI (NCI-H226 lung) was over 100 µM. For the same compound, the TGI (RXF 393 renal) was over 100 µM, the TGI (SNB-75 CNS) was over 100 µM and the TGI (PC-3 prostate) was over 100 µM. The TGI (HCC-2998 colon) was over 100 µM, the TGI (COLO 205 colon) was 27.3 µM and the TGI (SK-MEL-28 melanoma) was over 100 µM. For the same compound, the TGI (NCI-H522 lung) was 41.9 µM, the TGI (SW-620 colon) was 70.2 µM and the TGI (BT-549 breast) was over 100 µM. The TGI (SN12C renal) was over 100 µM, the TGI (SK-MEL-5 melanoma) was 93.8 µM and the TGI (M14 melanoma) was over 100 µM. It also gave a TGI (MDA-MB-435) of 51.7 µM, a TGI (SF-539 CNS) of over 100 µM and a TGI (LOX IMVI melanoma) of 36.5 µM. For the same compound, the TGI (HT29 colon) was over 100 µM, the TGI (SK-MEL-2 melanoma) was 57.2 µM and the TGI (NCI-H460 lung) was over 100 µM. The TGI (MCF7 breast) was 30.1 µM, the TGI (SF-295 CNS) was over 100 µM and the TGI (786-0 renal) was 35.7 µM. For the same compound, the TGI (IGROV1 ovarian) was over 100 µM, the TGI (T-47D breast) was over 100 µM and the TGI (NCI-H23 lung) was over 100 µM. For the same compound, the TGI (MALME-3M melanoma) was over 100 µM, the TGI (SR leukemia) was 46.9 µM and the TGI (HL-60(TB) leukemia) was 41.8 µM. The TGI (SF-268 CNS) was over 100 µM, the TGI (DU-145 prostate) was over 100 µM and the TGI (NCI/ADR-RES ovarian) was over 100 µM. The TGI (OVCAR-4 ovarian) was over 100 µM, the TGI (HCT-116 colon) was 38.2 µM and the TGI (SK-OV-3 ovarian) was over 100 µM. It also gave a TGI (U251 CNS) of over 100 µM, a TGI (HOP-62 NSCLC) of over 100 µM and a TGI (HS 578T breast) of over 100 µM. For the same compound, the TGI (OVCAR-5 ovarian) was over 100 µM, the TGI (RPMI-8226 leukemia) was 45.3 µM and the TGI (A498 renal) was over 100 µM. The TGI (A549 NSCLC) was over 100 µM, the TGI (HCT-15 colon) was over 100 µM and the TGI (TK-10 renal) was over 100 µM. The TGI (UO-31 renal) was over 100 µM, the TGI (MDA-MB-231 breast) was over 100 µM and the TGI (EKVX NSCLC) was over 100 µM. The TGI (HOP-92 NSCLC) was over 100 µM, the TGI (OVCAR-3 ovarian) was over 100 µM and the TGI (UACC-62 melanoma) was over 100 µM. The TGI (ACHN renal) was over 100 µM and the TGI (UACC-257 melanoma) was over 100 µM.
